Experimental data taken from patent publication US11878981B2, “Substituted 1,2,4-oxadiazoles as TRPA1 inhibitors” (Boehringer Ingelheim International GmbH, priority 2021, dated 2024).

What was measured:
human TRPA1 ion channel = molecular target: T1, human TRPA1 ion channel (Homo sapiens, UniProt O75762); assay: Assay A: TRPA1 assay (in vitro TRPA1 cell assay, FLIPR calcium); format: cell-based; details: read-out: hTRPA1 IC50
T1 construct: host or cells: HEK293
Protocol: A human HEK293 cell line over-expressing the human TRPA1 ion channel (Perkin Elmer, Product No. AX-004-PCL) is used as a test system for compound efficacy and potency. Compound activity is determined by measuring the effect of compounds on intracellular calcium concentration induced by AITC (Allylisothiocyanat) agonism in a FLIPRtetra system (Molecular Devices).
The cells are obtained as frozen cells in cryo-vials and stored until use at −150° C.
Cells are grown in culture medium (MEM/EBSS medium with 10% FCS and 0.4 mg/ML Geneticin). […] For sub-culturing cells are detached from flasks by Versene. At the day before the assay, cells are detached, washed twice with medium (MEM/EBSS medium with 10% FCS) and 20000 cells in 20 μl/well are seeded to Poly D-Lysin biocoated 384-well plates (black, clear bottom, Cat. 356697) from Corning. Plates are incubated for 24 hours at 37° C./5% CO2 before use in the assay.
The test compounds are dissolved in 100% DMSO at a concentration of 10 mM and in a first step diluted in DMSO to a concentration of 5 mM, followed by serial dilution steps in 100% DMSO. Dilution factor and number of dilution steps may vary according to needs. Typically 8 different concentrations by 1:5 dilutions are prepared, further intermediate dilutions (1:20) of the substances are carried out with HBSS/HEPES buffer (1×HEPES, Cat. 14065 from Gibco, 20 mM HEPES, Cat. 83264 from SIGMA, 0.1% BSA Cat. 11926 from Invitrogen, pH 7.4
At the assay day cells are washed 3× with assay puffer, 20 μL buffer remaining in the wells after washing. 10 μL Ca6 kit (Cat. R8191 MolecularDevices) loading buffer in HBSS/HEPES is added to the cells and the plates are incubated with lid for 120 minutes at 37°/5% CO2. 10 μL of compound or controls in HBSS/HEPES buffer/5% DMSO from the intermediate dilution plate are carefully added to the wells. […] Finally 10 μL of the agonist AITC 50 μM dissolved in HBSS/HEPES buffer/0.05% DMSO (final concentration 10 μM) is added to the wells followed by an additional read on the FLIPRtetra device for 10 minutes. The area under the signal curve (AUC) after AITC addition is used for IC50/% inhibition calculations
Data Evaluation and Calculation:
Each assay microtiter plate contains wells with vehicle (1% DMSO) controls instead of compound as controls for AITC induced luminescence (100% CTL; high controls) and wells with vehicle controls without AITC as controls for non-specific changes in luminescence (0% CTL; low controls).
The analysis of the data is performed by the calculation of the area under signal curve of the individual wells. Based on this values the % value for the measurement of each substance concentration is calculated (AUC(sample)−AUC(low))*100/(AUC(high)−AUC(low)) using MegaLab software (in house development). The IC50 values are calculated from the % control values using MegaLab software. Calculation: [y=(a−d)/(1+(x/c)^b)+d], a=low value, d=high value; x=conc M; c=IC50 M; b=hill; y=% ctrl

[1] = Assay B: Microsomal clearance; format: in vitro ADME, human; details: pooled liver microsomes, 37° C., 1 mg/ml protein, test compound 1 μM, NADPH
Protocol: Assay B: Microsomal Clearance:
The metabolic degradation of the test compound is assayed at 37° C. with pooled liver microsomes. The final incubation volume of 100 μl per time point contains TRIS buffer pH 7.6 at RT (0.1 M), magnesium chloride (5 mM), microsomal protein (1 mg/ml) and the test compound at a final concentration of 1 μM.
Following a short preincubation period at 37° C., the reactions are initiated by addition of beta-nicotinamide adenine dinucleotide phosphate, reduced form (NADPH, 1 mM) and terminated by transferring an aliquot into solvent after different time points (0, 5, 15, 30, 60 min). Additionally, the NADPH-independent degradation is monitored in incubations without NADPH, terminated at the last time point. The [%] remaining test compound after NADPH independent incubation is reflected by the parameter c (control) (metabolic stability). The quenched incubations are pelleted by centrifugation (10000 g, 5 min).
An aliquot of the supernatant is assayed by LC-MS/MS for the amount of parent compound. The half-life (t½ INVITRO) is determined by the slope of the semilogarithmic plot of the concentration-time profile.
The intrinsic clearance (CL_[…]) is calculated by considering the amount of protein in the incubation: CL _[…] [μl/min/mg protein]=(Ln 2/(half-life [min]*protein content [mg/ml]))*1000 CL_[…]_INVIVO [ml/min/kg]=(CL_[…] [μL/min/mg protein]×MPPGL [mg protein/g liver]×liver factor [g/kg bodyweight])/1000 Qh [%]=CL [ml/min/kg]/hepatic blood flow [ml/min/kg])
(§1) Hepatocellularity, human: 120×10e6 cells/g liver
(§2) Liver factor, human: 25.7 g/kg bodyweight
(§3) Blood flow, human: 21 ml/(min×kg)

human hepatocytes = assay: Assay C: Hepatocyte clearance; format: in vitro ADME; details: hepatocyte suspension, 5% species serum, test compound 1 μM, six hours
Protocol: Assay C: Hepatocyte Clearance
The metabolic degradation of the test compound is assayed in a hepatocyte suspension. Hepatocytes (cryopreserved) are incubated in Dulbecco's modified eagle medium (supplemented with 3.5 μg glucagon/500 mL, 2.5 mg insulin/500 mL and 3.75 mg/500 mL hydrocortison) containing 5% species serum.
The cells are incubated for six hours (incubator, orbital shaker) and samples ([…]) are taken at 0, 0.5, 1, 2, 4 and 6 hours. Samples are transferred into acetonitrile and pelleted by centrifugation (5 min). The supernatant is transferred to a new 96-deepwell plate, evaporated under nitrogen and resuspended.
Decline of Parent Compound is Analyzed by HPLC-MS/MS
CLint is calculated as follows CL_[…]=Dose/AUC=(C0/CD)/(AUD+clast/k)×1000/60. C0: initial concentration in the incubation [μM], CD: cell density of vital cells [10e6 cells/mL], AUD: area under the data [μM×h], clast: concentration of last data point [μM], k: slope of the regression line for parent decline [h−1].
The calculated in vitro hepatic intrinsic clearance can be scaled up to the intrinsic in vivo hepatic Clearance and used to predict hepatic in vivo blood clearance (CL) by the use of a liver model (well stirred model). CL_[…]_INVIVO [ml/min/kg]=(CL_[…] [μL/min/10e6cells]×hepatocellularity [10e6 cells/g liver]×liver factor [g/kg bodyweight])/1000 CL [ml/min/kg]=CL_[…]_INVIVO [ml/min/kg]×hepatic blood flow [ml/min/kg]/(CL_[…]_INVIVO [ml/min/kg]+hepatic blood flow [ml/min/kg]) Qh [%]=CL [ml/min/kg]/hepatic blood flow [ml/min/kg])
as §1, §2, §3

T1 sequence (O75762 whole entry): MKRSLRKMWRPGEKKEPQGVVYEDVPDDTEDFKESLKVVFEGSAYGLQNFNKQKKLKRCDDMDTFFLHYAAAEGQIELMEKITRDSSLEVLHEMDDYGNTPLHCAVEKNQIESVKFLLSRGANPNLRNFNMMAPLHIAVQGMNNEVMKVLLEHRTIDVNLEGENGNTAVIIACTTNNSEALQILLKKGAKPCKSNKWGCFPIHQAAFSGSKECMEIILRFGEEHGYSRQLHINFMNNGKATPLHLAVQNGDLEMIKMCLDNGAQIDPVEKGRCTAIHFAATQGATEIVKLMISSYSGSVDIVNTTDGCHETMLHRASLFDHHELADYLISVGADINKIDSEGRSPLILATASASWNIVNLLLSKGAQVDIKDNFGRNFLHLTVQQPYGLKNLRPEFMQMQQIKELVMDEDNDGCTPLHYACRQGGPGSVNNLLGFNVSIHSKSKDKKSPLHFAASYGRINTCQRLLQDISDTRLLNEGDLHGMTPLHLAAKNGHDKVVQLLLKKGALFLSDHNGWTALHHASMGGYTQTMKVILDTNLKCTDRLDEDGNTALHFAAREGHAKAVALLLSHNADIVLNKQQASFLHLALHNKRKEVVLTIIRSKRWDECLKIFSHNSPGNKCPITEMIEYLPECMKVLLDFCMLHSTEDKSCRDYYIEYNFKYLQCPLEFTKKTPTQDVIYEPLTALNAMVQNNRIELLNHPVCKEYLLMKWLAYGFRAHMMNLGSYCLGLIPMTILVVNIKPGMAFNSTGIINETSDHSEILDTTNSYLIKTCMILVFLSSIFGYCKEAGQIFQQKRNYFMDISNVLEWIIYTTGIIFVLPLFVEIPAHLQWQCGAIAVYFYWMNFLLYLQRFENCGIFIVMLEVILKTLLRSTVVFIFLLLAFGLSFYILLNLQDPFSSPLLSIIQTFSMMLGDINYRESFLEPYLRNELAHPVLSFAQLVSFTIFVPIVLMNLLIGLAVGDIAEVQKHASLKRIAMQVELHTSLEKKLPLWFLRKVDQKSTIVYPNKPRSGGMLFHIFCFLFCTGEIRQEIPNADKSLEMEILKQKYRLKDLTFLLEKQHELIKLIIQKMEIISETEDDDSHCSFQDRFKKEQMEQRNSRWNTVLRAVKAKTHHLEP

SMILES | IC50 (human TRPA1 ion channel) [µM] | human LM [% Qh] [1] [% Qh] | human Hepatocytes [% Qh] (human hepatocytes)
Cn1cnc2cnn(Cc3nc(C[C@H](O)c4ccc5c(c4)OCO5)no3)c(=O)c21 [Example 7] | 0.204 | <23 | 9
Cn1c(=O)n(C)c2c(=O)n(Cc3nc(C[C@H](O)c4cc5cc(Cl)ccc5o4)no3)ncc21 [Example 15] | 0.047 | <23 | 12
Cn1c(=O)n(C)c2c(=O)n(Cc3nc(C[C@H](O)c4cc5ccccc5o4)no3)ncc21 [Example 4] | 0.158 | <23 | 9
Cn1cnc2cnn(Cc3nc(C[C@H](O)c4cc5ccccc5s4)no3)c(=O)c21 [Example 12] | 0.024 | 31 | 42
Cc1ccc([C@@H](O)Cc2noc(Cn3ncc4ncn(C)c4c3=O)n2)cc1 [Example 6] | 0.096 | <23 | 9
Cc1ccc([C@@H](O)Cc2noc(Cn3ncc4c(c3=O)n(C)c(=O)n4C)n2)cc1 [Example 2] | 0.047 | <23 | 14
Cn1c(=O)n(C)c2c(=O)n(Cc3nc(C[C@H](O)c4cc5cc(F)ccc5o4)no3)ncc21 [Example 16] | 0.079 | <23 | 14
Cn1c(=O)n(C)c2c(=O)n(Cc3nc(C[C@H](O)c4ccc(F)cc4)no3)ncc21 [Example 3] | 0.147 | <23 | 13
Cn1cnc2cnn(Cc3nc(C[C@H](O)c4ccc(Br)cc4)no3)c(=O)c21 [Example 8, 6-({3-[(2S)-2-(4-bromophenyl)-2-hydroxyethyl]-1,2,4-oxadiazol-5-yl}methyl)-1-methyl-1H,6H,7H-imidazo[4,5-d]pyridazin-7-one] | 0.041 | <23 | 39
Cn1c(=O)n(C)c2c(=O)n(Cc3nc(C[C@H](O)c4ccc(Cl)cc4)no3)ncc21 [Example 1, 5-({3-[(2S)-2-(4-chlorophenyl)-2-hydroxyethyl]-1,2,4-oxadiazol-5-yl}methyl)-1,3-dimethyl-1H,2H,3H,4H,5H-imidazo[4,5-d]pyridazine-2,4-dione] | 0.022 | <23 | 10
Cn1cnc2cnn(Cc3nc(C[C@H](O)c4ccc(Cl)cc4)no3)c(=O)c21 [Example 5] | 0.06 | <23 | 23

The next compounds have a lower IC50 (human TRPA1 ion channel) than those just listed; values first:

IC50 (human TRPA1 ion channel) [µM] | human LM [% Qh] [1] [% Qh] | human Hepatocytes [% Qh] (human hepatocytes) | SMILES
0.019 | 30 | 35 | Cn1cnc2cnn(Cc3nc(C[C@H](O)c4cc5cc(Cl)ccc5o4)no3)c(=O)c21 [Example 11]
0.013 | <23 | 29 | Cn1cnc2cnn(Cc3nc(C[C@H](O)c4cc5cc(F)ccc5o4)no3)c(=O)c21 [Example 10]
0.009 | 41 | 43 | Cn1cnc2cnn(Cc3nc(C[C@H](O)c4cc5ccc(F)cc5s4)no3)c(=O)c21 [Example 9]
0.009 | 36 |  | Cn1c(=O)n(C)c2c(=O)n(Cc3nc(C[C@H](O)c4cc5ccc(F)cc5s4)no3)ncc21 [Example 13]
0.019 | <23 | 43 | Cn1c(=O)n(C)c2c(=O)n(Cc3nc(C[C@H](O)c4cc5ccccc5s4)no3)ncc21 [Example 14]
